Experimental data as given in patent US20180021405A1, “NUTRITIONAL APPROACH TO THE CONTROL OF ANEMIA, DIABETES AND OTHER DISEASES OR CONDITIONS AND PREVENTION OF ASSOCIATED COMORBID STATES WITH THE USE OF ERGOTHIONEINE” (priority 2011, published 2018).

Experiments:
[1] = mushroom test meal, 8 g and 16 g mushroom powder; cited from earlier work
[2] = test system: Drosophila melanogaster; assay: survival under Paraquat-induced oxidative stress; type: in vivo; conditions: 10 mM Paraquat
Procedure: The effect of Agaricus Blazei without enrichment, with Vitamin D2 enrichment, pure Vitamin D2 and control (vehicle for the delivery) on the survival rate of Drosophila melanogaster under Paraquat-induced oxidative stress condition was tested. The study focused on the control of Paraquat induced oxidative stress/biologic death. Paraquat is a very potent oxidative stress inducing chemical and causes death in animals and plants by the toxicity of released free radicals. Paraquat (10 mM concentration) (Sigma Aldrich) was used to chemically induce oxidative stress. Paraquat is the trade name for N,N′-dimethyl-4,4′-bipyridinium dichloride, a widely used herbicide. Paraquat, a viologen, is quick-acting and non-selective, killing green plant tissue on contact. It is also toxic to humans when swallowed. This is the most standard chemical used in experimental induction of oxidative stress using the Drosophila model system. It catalyzes the formation of reactive oxygen species (ROS). Paraquat will undergo redox cycling in vivo, gets reduced by an electron donor such NADPH, before being oxidized by an electron receptor such as dioxygen to produce superoxide, a major ROS.
The following materials and methods were utilized. Vials containing 10 mM Paraquat (from Sigma Aldrich) in 5 ml of 1.2% Low melting point Agarose medium were prepared. A strip of half moist filter paper was inserted in the medium (with the wet end in). Yeast paste containing 1% concentration (w/w) of the various test materials (see above) mixed to homogeneity was prepared. Yeast paste without drug was used as control. Uniform aliquot (˜300 mg) of yeast paste with or without the test material) was applied to vials in such a way that yeast paste was on the glass surface and covered the dry end (top) of the filter paper strip. Freshly enclosed wild type isogenized Canton-S males and females were collected and starved on 1% agar medium for 5-6 hours. Four males and females were transferred to the vial containing 10 mM Paraquat in LMP agarose medium and yeast paste with +/− test material (8 flies per vial). 6 vials were used per experiment. Vials with flies were placed horizontally in a tray. The experiment was conducted at 25 degrees C. temperature. Flies were transferred once in 2 days and the number of flies surviving at each transfer was recorded.

[3] = test system: Alzheimer's disease mutant fruit fly (APP over-expression); assay: survival and life span in Alzheimer's disease (AD) model flies; parameters: species or system Drosophila; conditions: in vivo
Source text: Type of Model (with specific Drosophila model of neurodegeneration). The targeted over/ectopic expression of APP in the brain using a UAS promoter driven APP transgene, induced by a specific GAL4 trans-driver in the brain of a Drosophila model system, was used for this Example.
The AD strain lives only for a few days after their eclosion (birth) as opposed to 65 days or more for wild type normal strains.
We determined the extension of life span in the mutant strain for each test compound. We used a specific GAL4 driver that induces the APP gene in the central brain area at high levels (see above) and results in a fully penetrant lethality within a 2-3 weeks period.

[4] = test system: hemodialysis patients; conditions: human, in vivo; cited from earlier work
[5] = test system: vitamin D-deficient dialysis patients; conditions: 81 patients; cited from earlier work

| SMILES | bioavailability of ET from mushrooms [1] | time of ET peak in red blood cells after mushroom consumption [1] [h] | effect on survival under Paraquat-induced oxidative stress (words) [2] | survival rate of AD flies relative to control [3] | survivability under Paraquat-induced oxidative stress ([2]; 1% w/w in yeast paste, over 10 days, 25 degrees C) [%+/−3%] | effect on survival under Paraquat-induced oxidative stress (words) ([2]; listed as Vitamin D2) | effect on survival under Paraquat-induced oxidative stress (words) ([2]; listed as Vitamin D2 in its pure form) | patients with a reduction in EPO dose after supplementation [4] [%] | patients able to reach 25-D levels of 30 ng/mL or greater [5] [%] | patients requiring less EPO with supplementation [5] [%] |
| --- | --- | --- | --- | --- | --- | --- | --- | --- | --- | --- |
| C[N+](C)(C)[C@@H](Cc1c[nH]c(=S)[nH]1)C(=O)[O-] [ET, L-Ergothioneine] | bioavailable | 2 | – | – | – | – | – | – | – | – |
| C=C1CC[C@H](O)C/C1=C/C=C1\CCC[C@]2(C)[C@@H]([C@H](C)CCCC(C)C)CC[C@@H]12 [Vitamin D3, cholecalciferol] | – | – | no beneficial effect | no such effect | – | – | – | – | – | – |
| C=C1CC[C@H](O)C/C1=C/C=C1\CCC[C@]2(C)[C@@H]([C@H](C)/C=C/[C@H](C)C(C)C)CC[C@@H]12 [pure Vitamin D2, Ergocalciferol] | – | – | no effect | no such effect | 13 | no beneficial effect | deleterious effect | 64 | 44 | 57 |
